Experimental data as given in ChEMBL document CHEMBL5678818, “Discovery of potent SOS1 inhibitors that block RAS activation via disruption of the RAS-SOS1 interaction” (Proc Natl Acad Sci U S A, 2019).

Columns and labels:
[1] = molecular target: T1, Serine/threonine-protein kinase PknB (Mycobacterium tuberculosis) (UniProt P9WI81); experiment: Inhibition of Mycobacterium tuberculosis PKNB assessed as residual activity at 100 nM by KINOMEscan analysis relative to control
T1 sequence (whole entry): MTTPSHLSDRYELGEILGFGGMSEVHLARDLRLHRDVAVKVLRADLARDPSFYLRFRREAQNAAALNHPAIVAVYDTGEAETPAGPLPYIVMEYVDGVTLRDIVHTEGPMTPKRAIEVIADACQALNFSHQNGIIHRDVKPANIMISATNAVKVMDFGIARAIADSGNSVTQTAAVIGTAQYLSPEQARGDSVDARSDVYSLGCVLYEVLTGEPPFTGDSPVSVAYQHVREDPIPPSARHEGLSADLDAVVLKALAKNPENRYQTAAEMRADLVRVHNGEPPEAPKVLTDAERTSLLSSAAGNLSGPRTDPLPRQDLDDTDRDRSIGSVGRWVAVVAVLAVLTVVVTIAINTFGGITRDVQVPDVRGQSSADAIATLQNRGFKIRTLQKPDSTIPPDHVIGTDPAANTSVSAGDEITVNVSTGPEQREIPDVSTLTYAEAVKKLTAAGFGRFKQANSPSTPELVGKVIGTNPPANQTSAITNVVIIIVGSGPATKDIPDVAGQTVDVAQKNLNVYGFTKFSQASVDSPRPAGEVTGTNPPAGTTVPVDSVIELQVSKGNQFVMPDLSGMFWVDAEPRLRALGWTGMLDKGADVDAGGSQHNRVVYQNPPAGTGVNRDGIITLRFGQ

[2] = molecular target: T2, Serine/threonine-protein kinase D3 (Homo sapiens) (UniProt O94806); experiment: Inhibition of PRKD3 (unknown origin) assessed as residual activity at 100 nM by KINOMEscan analysis relative to control
T2 sequence (whole entry): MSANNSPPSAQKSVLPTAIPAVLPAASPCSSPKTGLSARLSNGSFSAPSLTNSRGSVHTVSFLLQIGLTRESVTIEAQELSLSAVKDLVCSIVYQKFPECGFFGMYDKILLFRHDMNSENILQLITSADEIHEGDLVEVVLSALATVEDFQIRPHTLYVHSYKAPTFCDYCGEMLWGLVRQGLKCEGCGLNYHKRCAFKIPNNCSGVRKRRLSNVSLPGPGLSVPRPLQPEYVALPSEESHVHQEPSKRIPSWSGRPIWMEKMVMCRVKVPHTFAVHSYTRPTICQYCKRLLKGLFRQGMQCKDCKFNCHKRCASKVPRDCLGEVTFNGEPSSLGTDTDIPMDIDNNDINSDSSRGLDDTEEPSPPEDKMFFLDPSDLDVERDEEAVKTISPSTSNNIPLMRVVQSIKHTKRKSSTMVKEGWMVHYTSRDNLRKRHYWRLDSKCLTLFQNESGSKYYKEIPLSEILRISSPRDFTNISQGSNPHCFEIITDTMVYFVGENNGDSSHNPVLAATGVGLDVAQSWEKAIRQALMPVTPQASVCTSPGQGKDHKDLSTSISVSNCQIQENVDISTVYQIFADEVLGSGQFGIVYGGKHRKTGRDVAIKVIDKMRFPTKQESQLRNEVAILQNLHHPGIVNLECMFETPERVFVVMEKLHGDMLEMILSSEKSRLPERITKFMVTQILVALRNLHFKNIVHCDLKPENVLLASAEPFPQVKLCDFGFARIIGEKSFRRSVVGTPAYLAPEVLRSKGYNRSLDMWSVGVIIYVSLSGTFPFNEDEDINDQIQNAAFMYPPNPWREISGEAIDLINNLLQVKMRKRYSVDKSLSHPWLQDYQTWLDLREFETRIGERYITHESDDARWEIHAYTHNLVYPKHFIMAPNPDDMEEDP

[3] = molecular target: Tyrosine-protein kinase Blk (Homo sapiens) (UniProt P51451); experiment: Inhibition of BLK (unknown origin) assessed as residual activity at 100 nM by KINOMEscan analysis relative to control
Homo sapiens = organism: Homo sapiens; experiment: Inhibition of N-terminal GST-tagged recombinant human SOS1 N879V mutant (564 to 1049 residues) expressed in Escherichia coli assessed as reduction in KRAS G12C mutant activation at 10 uM by HTRF analysis relative to control
[4] = molecular target: T3, Ephrin type-B receptor 3 (Homo sapiens) (UniProt P54753); experiment: Inhibition of EPHB3 (unknown origin) assessed as residual activity at 100 nM by KINOMEscan analysis relative to control
T3 sequence (whole entry): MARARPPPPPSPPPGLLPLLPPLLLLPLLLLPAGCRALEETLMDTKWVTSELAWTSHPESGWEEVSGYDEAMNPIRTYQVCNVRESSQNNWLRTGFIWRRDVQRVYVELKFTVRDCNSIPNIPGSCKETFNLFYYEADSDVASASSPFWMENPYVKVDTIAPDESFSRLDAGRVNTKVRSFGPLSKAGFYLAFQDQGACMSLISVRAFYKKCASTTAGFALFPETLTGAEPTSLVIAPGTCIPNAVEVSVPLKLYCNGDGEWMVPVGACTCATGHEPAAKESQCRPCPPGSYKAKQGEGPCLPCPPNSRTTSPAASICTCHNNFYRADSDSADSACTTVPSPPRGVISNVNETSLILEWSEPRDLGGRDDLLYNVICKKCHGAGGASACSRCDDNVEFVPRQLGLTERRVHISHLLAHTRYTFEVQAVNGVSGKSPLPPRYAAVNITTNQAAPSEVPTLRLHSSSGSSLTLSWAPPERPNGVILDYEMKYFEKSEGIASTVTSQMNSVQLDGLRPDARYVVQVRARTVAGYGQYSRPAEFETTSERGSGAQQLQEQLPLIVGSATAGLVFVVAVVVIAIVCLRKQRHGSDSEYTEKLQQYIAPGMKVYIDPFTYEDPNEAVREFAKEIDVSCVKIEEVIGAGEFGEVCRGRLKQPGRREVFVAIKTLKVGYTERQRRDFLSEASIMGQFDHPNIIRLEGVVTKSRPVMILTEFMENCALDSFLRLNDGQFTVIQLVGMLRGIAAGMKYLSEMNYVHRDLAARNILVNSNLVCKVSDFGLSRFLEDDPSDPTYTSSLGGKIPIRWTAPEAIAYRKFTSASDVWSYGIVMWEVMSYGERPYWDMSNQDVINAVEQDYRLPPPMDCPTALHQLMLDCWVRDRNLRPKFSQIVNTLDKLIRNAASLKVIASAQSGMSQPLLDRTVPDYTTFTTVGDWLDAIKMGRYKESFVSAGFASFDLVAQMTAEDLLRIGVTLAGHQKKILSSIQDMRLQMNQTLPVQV

[5] = test system: Hepatocyte growth factor receptor (Homo sapiens), P08581 [Y1235D]; experiment: Inhibition of MET Y1235D mutant (unknown origin) assessed as residual activity at 100 nM by KINOMEscan analysis relative to control

Tyrosine-protein kinase Blk (Homo sapiens), sequence (P51451 2-505 limits assumed): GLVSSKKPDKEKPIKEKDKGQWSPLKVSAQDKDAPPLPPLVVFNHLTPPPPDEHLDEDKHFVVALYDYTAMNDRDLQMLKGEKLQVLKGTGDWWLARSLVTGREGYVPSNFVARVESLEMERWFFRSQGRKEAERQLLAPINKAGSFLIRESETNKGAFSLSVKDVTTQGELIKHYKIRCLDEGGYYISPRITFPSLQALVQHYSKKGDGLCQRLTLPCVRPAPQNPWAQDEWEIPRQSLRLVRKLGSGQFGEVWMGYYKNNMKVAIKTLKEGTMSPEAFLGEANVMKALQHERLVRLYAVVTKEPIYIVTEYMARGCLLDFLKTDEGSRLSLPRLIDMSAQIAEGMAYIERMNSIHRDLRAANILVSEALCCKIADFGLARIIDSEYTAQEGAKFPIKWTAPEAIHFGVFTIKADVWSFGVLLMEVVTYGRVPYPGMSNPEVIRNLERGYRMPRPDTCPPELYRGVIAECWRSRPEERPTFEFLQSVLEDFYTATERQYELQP

`COc1cc2ncnc(N[C@H](C)c3cccc4ccccc34)c2cc1OC` was tested, and the Activity [1] was 96%, the Activity [2] was 100% and the Activity [3] was 77%. The inhibition (Homo sapiens) was 51%, the Activity [4] was 71% and the Activity [5] was 83%.
